Where two headings read alike, the source gives them in different places.
Key:
[1] = target: T1, C3aR (Homo sapiens, UniProt Q16581); assay: Calcium mobilization assay in HMDM (agonist/antagonist activity); format: cell-based
T1 construct: peripheral blood mononuclear cells were isolated from buffy coat (obtained from Australian Red Cross Blood Service, Kelvin Grove); endogenous in cells; host or cells: primary human monocyte-derived macrophages (HMDM) differentiated from CD14+ monocytes of donor buffy coat
T1 sequence (Q16581 1-482): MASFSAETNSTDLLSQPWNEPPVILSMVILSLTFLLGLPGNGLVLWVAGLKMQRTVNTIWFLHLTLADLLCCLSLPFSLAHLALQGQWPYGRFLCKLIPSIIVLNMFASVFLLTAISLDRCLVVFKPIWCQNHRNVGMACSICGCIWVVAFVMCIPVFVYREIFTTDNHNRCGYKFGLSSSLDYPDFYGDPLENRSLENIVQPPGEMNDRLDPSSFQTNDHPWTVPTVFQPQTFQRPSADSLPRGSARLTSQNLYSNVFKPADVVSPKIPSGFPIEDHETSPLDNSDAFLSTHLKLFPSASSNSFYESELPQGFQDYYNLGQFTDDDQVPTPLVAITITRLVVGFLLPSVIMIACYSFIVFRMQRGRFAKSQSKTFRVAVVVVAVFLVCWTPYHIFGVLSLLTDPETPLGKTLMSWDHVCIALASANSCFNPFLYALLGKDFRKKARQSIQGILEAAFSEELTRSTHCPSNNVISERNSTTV
Procedure, shortened: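 Human monocyte-derived macrophages, 5×10^4 cells/well, loaded 1 h at 37 °C with 4 μM Fluo-3 in HBSS/HEPES/probenecid buffer, pH 7.4. Agonist mode: calcium release read 300 s; antagonist mode: 900 s compound preincubation then agonist, read 300 s (ex 485/em 520 nm); compared with hC3a.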

[2] = target: T2, C3a receptor (C3aR) (Homo sapiens, UniProt Q16581); assay: Competitive binding with [^125I]-C3a in HMDM; conditions: HMDM
T2 construct: peripheral blood mononuclear cells were isolated from buffy coat (obtained from Australian Red Cross Blood Service, Kelvin Grove); endogenous in cells; host or cells: primary human monocyte-derived macrophages (HMDM) differentiated from CD14+ monocytes of donor buffy coat
T2 sequence (Q16581 1-482): T1 sequence (Q16581 1-482)
Procedure, shortened: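 IC50 values are geometric means, with −log IC50 computed per experiment and given as arithmetic mean ± SE. Cells were CD14+ monocytes from buffy-coat PBMC, differentiated to macrophages and used on day 7. Unbound label was removed by GF/B filtration with 3 cold washes in 50 mM Tris-HCl pH 7.4.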

[3] = target: T1, C3aR; assay: Desensitization experiments (Ca^2+ efflux after hC3a desensitization); format: cell-based; conditions: hC3a 3 μM first; second addition of 1 μM compound; HMDM
Description: Desensitization experiments were used to measure the selectivity of various ligands for C3aR, since this can help to clarify whether the non-peptidic ligands bind selectively to C3aR over other GPCRs that signal through intracellular calcium release.
The hC3a (3 μM) was administered to human monocyte derived macrophage cells, which produces an efflux of intracellular Ca^2+ that dissipates after 4-5 mins (FIGS. 4A and 4B). A second addition of 3 μM hC3a after 5 mins has no effect, due to desensitization of the receptor through either receptor (C3a receptor) phosphorylation or receptor internalization from the cell surface.

[4] = system: IL1B, IL8, CCL3, EGR1, FOSB and TNF gene expression in HMDMs; assay: Regulation of inflammatory genes in HMDM (qRT-PCR); format: cell-based, human
Source text: Human monocyte-derived macrophages (HMDMS) were isolated from buffy coat of anonymous donors provided by the Australian Red Cross Blood Service at Kelvin Grove, Queensland, Australia. White blood cells were separated from other blood components into different layers using Ficoll-Paque Plus Density Centrifugation (GE Healthcare Bio-Science, Uppsala, Sweden) according to manufacturer's instruction. The isolated white blood cells were repeatedly washed with ice-cold water to remove contaminating erythrocytes. CD14^+ monocytes were positively selected from white blood cells using CD14^+ Macs Magnetic Beads (Miltenyi biotech, Auburn, Calif., USA) after successive magnetic sorting and washings. CD14^+ monocytes (1.5×10^6 cells/mL) were seeded in 10 mL of IMDM supplemented with 10% fetal calf serum (FBS), 10 U/mL streptomycin, 10 U/mL penicillin and 2 mmol L-glutamine (Invitrogen). To generate HMDMS, […] of recombinant human macrophage colony stimulating factor (M-CSF) (Peprotech Inc., rocky Hill, N.J., USA) was added for differentiation. HMDMS were maintained at 37° C. in a humidified incubator with 5% CO2 for a week to fully differentiate. At day 7, the adhered HMDMS were harvested by gentle scraping in saline solution.
HMDMs (2×10^6) in 2 mL of IMDM medium were transferred into each well on a 6-well plate. The cells were left to incubate for 6 h to allow adhesion before being serum starved in serum free IMDM to reduce background noise of the C3a treatment. In the time response experiment, cells were treated with 10 nM of C3a or agonist (compound 8 or 64) for 0.5, 1, 2 or 6 h. In concentration response experiments, cells were treated with 1, 10, 100 or 300 nM for 1 h. To prepare the samples for the microarray experiments, cells were treated with agonist at 100-300 nM for 30 min or 1 h in the absence or presence of the antagonist (e.g. SB-290157 or antagonists). […] Cells were washed with saline solution at the end of each treatment before the RNA extraction step.
Total RNA was extracted from cells using RNeasy Mini Plus kit (Qiagen, USA) according to the manufacturer's instructions. The concentration of the RNA was determined by measuring absorbance at λ=260/280 […] on a nanodrop spectrophotometer (Thermo Scientific), according to the manufacturer's instructions.
Total RNA (2-5 μg) was reverse transcribed with Superscript III (Invitrogen, USA) using random oligo dT primer. Reagents were incubated (50 min, 50° C.; then 10 min, 70° C.) in thermal cyclers (Bio-Rad) to complete the reaction, cDNA samples were stored at −20° C. until further use. All RNA work was performed on ice (4° C.) to prevent degradation of the RNA samples.
cDNA (0.5 μg) samples were prepared with 5 μL SYBR® Green PCR master mix (Applied Biosystems™, CA, USA), 2 μL relevant primers (2 μM) and 1 μL dH2O before being analysed using an ABI 7900HT Fast Real-Time PCR System (Applied Biosystems™, CA, USA) according to the manufacturer's specifications. Fluorescence data was collected during the extension phase (60° C.). The concentration response data for each sample was then normalised against the same data for control housekeeping gene, (18S) to quantify and generate gene expression data. All samples were done in at least duplicate. Primers were designed using the Primer-BLAST software (National Center for Biotechnology Information, USA). Primers contained, amplicons that cross exon-exon boundaries to prevent amplification of genomic DNA. […]

[5] = Table 9, Ca^2+ mobilization, HMDM
[6] = Table 9, Ca^2+ mobilization, HMDM, read-out: EC50
[7] = Table 6, competitive binding with [^125I]-C3a
[8] = Table 6, competitive binding with [^125I]-C3a, read-out: IC50 (converted)
[9] = Table 9, Ca^2+ mobilization, HMDM, read-out: pEC50 ± SEM (converted)
[10] = Table 11, Ca^2+ mobilisation, HMDM, read-out: Apparent Antagonist Activity EC50
[11] = Table 11, [^125I]-C3a, read-out: Receptor Binding Affinity IC50

Row | Compound | pEC50 ± SEM [1, 5] | EC50 [1, 6] [nM] | pIC50 ± SEM [2, 7] | IC50 [2, 8] [nM] | EC50 [1, 9] [nM] | EC50 [1, 10] [nM] | IC50 [2, 11] [nM] | Ca^2+ efflux on addition after first desensitization with hC3a (selectivity for C3aR over other GPCRs) [3] | other results
1 | CC[C@H](C)[C@H](NC(=O)c1ccccc1Oc1ccccc1)c1nc(C(=O)N[C@@H](CCCNC(=N)N)C(=O)O)co1 [Compound 18, 2-phenoxy benzoic acid-isoleucine-oxazole-arginine-OH] | 7.26 ± 0.08 | 54 | 7.26 ± 0.09 | 55 |  |  |  | caused a second efflux of intracellular Ca^2+ | 
2 | pertussis toxin [reference compound] |  |  |  |  |  |  |  |  | Effect of pertussis toxin pre-treatment on gene induction by C3a or compounds 8 or 64 ([4]; 200 ng/mL pertussis toxin overnight, then 300 nM agonist for 30 minutes (not shown)): ablated
3 | CC(C)C[C@H](NC(=O)OC(C)(C)C)c1nc(C(=O)NC(CCCNC(=N)N)C(=O)O)co1 (stereo partly shown) [Compound 1, Boc-leucine oxazole-arginine-OH] |  |  |  | 20 | 19.1 | 19 | 20 | did not produce calcium efflux | EC50 ([1]; quoted in text of Example 98, read-out: EC50): 19 nM; IC50 ([2]; Table 6, competitive binding with [^125I]-C3a, read-out: pIC50 ± SEM (converted)): 19.5 nM; IC50 ([2]; Table 11, [^125I]-C3a, read-out: Receptor Binding Affinity pIC50 ± SE (converted)): 19.5 nM

The next lines start with results.

Row | pEC50 ± SEM [1, 5] | EC50 [1, 6] [nM] | pIC50 ± SEM [2, 7] | IC50 [2, 8] [nM] | EC50 [1, 9] [nM] | EC50 [1, 10] [nM] | IC50 [2, 11] [nM] | Compound | Ca^2+ efflux on addition after first desensitization with hC3a (selectivity for C3aR over other GPCRs) [3] | other results
4 |  |  |  | 123 | 40.7 |  |  | CC[C@H](C)[C@H](NC(=O)c1nccc2ccccc12)c1nc(C(=O)N[C@@H](CCCNC(=N)N)C(=O)O)co1 [Compound 10, Isoquinoline-1-Isoleucine-Oxazole-Arginine-OH] | did not produce calcium efflux | 
5 | 7.19 ± 0.06 | 65 | 9.64 ± 0.04 | 0.23 |  | 65 | 0.23 | hC3a: human complement protein C3a, natural ligand of the C3a receptor; unlabelled competitor and reference agonist |  | EC50 ([1]; Table 10, HMDM, read-out: Agonist Activity EC50): 45000 nM; Apparent Antagonist Activity pEC50 ± SE ([1]; Table 11, Ca^2+ mobilisation, HMDM): 7.2 ± 0.06; IC50 ([2]; Table 8, read-out: Receptor Binding Affinity ^125I IC50): 0.07 nM; Receptor Binding Affinity pIC50 ± SE ([2]; Table 11, [^125I]-C3a): 9.64 ± 0.04; Induction of gene expression of IL1B, IL8, CCL3, EGR1, FOSB and TNF ([4]; HMDMs, 300 nM, 30 minutes, qRT-PCR, fold change from control): significantly induce gene expression

Reference: patent publication US9586914B2, “Modulators of C3a receptors” (THE UNIVERSITY OF QUEENSLAND, priority 2011, dated 2017)
